Data on one compound can be found in article PMC4840323, “Plasiatine, an Unprecedented Indole–Phenylpropanoid Hybrid from Plantago asiatica as a Potent Activator of the Nonreceptor Protein Tyrosine Phosphatase Shp2” (Scientific Reports, 2016).

The assay concerns the target T1, Shp2 (Src homology 2-containing phosphotyrosine phosphatase 2) (Homo sapiens, UniProt Q06124).
T1 construct: gene PTPN11; GST-PTP fusion proteins of human Shp2 (residues 205–597)
T1 sequence (Q06124 205-593): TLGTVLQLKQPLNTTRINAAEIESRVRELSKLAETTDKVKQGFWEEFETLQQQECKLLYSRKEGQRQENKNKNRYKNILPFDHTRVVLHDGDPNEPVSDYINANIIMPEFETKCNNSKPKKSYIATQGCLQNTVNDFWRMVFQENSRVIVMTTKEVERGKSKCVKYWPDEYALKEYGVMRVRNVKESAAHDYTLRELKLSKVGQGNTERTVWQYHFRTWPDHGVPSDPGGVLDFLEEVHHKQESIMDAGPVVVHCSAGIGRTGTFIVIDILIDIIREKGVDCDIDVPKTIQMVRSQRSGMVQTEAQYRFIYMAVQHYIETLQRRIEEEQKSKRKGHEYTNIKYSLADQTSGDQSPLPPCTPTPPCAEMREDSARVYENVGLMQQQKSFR
Nature of the assay: activation of recombinant GST-Shp2 phosphatase activity, DiFMUP fluorescence assay. The format is biochemical.

For `COc1cc([C@H]2Oc3cc4c(cc3[C@@H]2CO)NC(=O)[C@@]4(O)CC#N)ccc1O` [compound 1, plasiatine], the 50% effective concentration (EC50) came to 970 nM.

By EC50 is commonly meant the midpoint of the concentration-response curve.
